Measurements as given in patent publication US11447533B2, “Antimicrobial and anticancer peptides and conjugates and compositions, methods, articles and kits relating thereto” (George Mason Research Foundation, Inc., priority 2018, dated 2022).

Test system: E. coli ML35p outer membrane
Test: NPN assay, outer membrane perturbation
Type: cell-based, Escherichia coli
Details: DPBS; 25 μM peptide; 25 μM PMB = 100%
Method: Interactions with Bacterial Membranes. Interaction of the peptides with bacterial membranes in different phosphate buffers were evaluated using E. coli ML35p, constructed in our laboratory. At first, competent cells of E. coli ML35 were produced by conventional competent cell preparation method, then transformed with pBR322 plasmid. Transformed colonies were selected after growing on Luria-agar containing 50 μg/mL ampicillin. A single transformed colony was grown in presence of ampicillin first in Luria broth and then in MHBII and stored as 20% glycerol stock at −80° C. This frozen stock, on the day of the experiment, was thawed and grown in MHBII containing ampicillin up to OD600 nm=0.8-0.9, washed with PBS and then suspended in the respective buffer up to the required OD600 nm for use.
NPN Assay. The outer membrane perturbation of bacteria was evaluated by incubating E. coli ML35p with peptides in presence of NPN. 100 mM NPN in acetone was supplemented proportionately to a bacterial suspension of OD600 nm˜0.5 to achieve a final concentration of 20 μM of NPN and the mixture was equilibrated for 30 mins. Then, 90 μL of the bacterial suspension containing 20 μM NPN was added with 10 μL of 250 μM peptide (10×) solution in water and scanned for fluorescence intensity (excitation=350 nm, emission=420 nm). The % Perturbation was calculated by considering PMB to be causing 100% Perturbation and water (without peptide) as 0% Perturbation. Each peptide was tested in triplicate in each of the three phosphate buffers used.
When peptides partition from the bulk aqueous environment to the cellular membranes, they may cause small defects in the membrane organization, a signature of adsorption of the peptides into the membranes. Such small defects are called membrane perturbations and can be evaluated by utilizing molecular probes. One such molecular probe is NPN, which is a hydrophobic molecule and is usually repelled to enter the hydrophobic interiors of the membrane by the polar headgroups of membrane-lipids. However, when small defects and gaps are caused during the adsorption of the peptides into the membranes, NPN can enter through those defects and in the hydrophobic environment of the membrane interior the molecule fluoresces, which can be measured for quantification of the extent of membrane-perturbation and peptide adsorption in the cellular membrane.

## KRWKKFFKKWK (SEQ ID NO: 12) [ATRA1-W2]
  membrane perturbation with respect to PMB: higher OM perturbation than ATRA1
